# Reference: patent US6365584B1, “Arylysulphonamide-substituted benzimidazoles having tryptase-inhibiting activity” (Boehringer Ingelheim Pharma KG, priority 1999, dated 2002)
# Counter-ions that a name gives are not always drawn.
# Biological target: T1, rh beta tryptase (Homo sapiens, UniProt Q15661)
# T1 construct: purchased Promega
# Assay: tryptase inhibition test (cleavage of N-p-tosyl-Gly-Pro-Lys-para-nitroaniline, p-nitroaniline measured at 405 nm)
# Assay type: biochemical
# Details: Tris HCl buffer pH 7.4 with calcium and heparin; substrate 0.6 mM; 5 min pre-incubation, 5 min incubation at 37° C.; enzyme activity 0.91 U/ml
# Description: The compounds according to the invention are characterised by their tryptase-inhibiting activity. This ability to inhibit tryptase was investigated using the test described below. The measurement is carried out in Tris HCl buffer (100 mM), which additionally contains calcium (5 mM) and heparin (100 mg/ml), at pH 7.4. The standard used is rh beta tryptase which may be obtained commercially from Promega, for example. The substrate used is N-p-tosyl-Gly-Pro-Lys-para-nitroaniline in a concentration of 0.6 mM. The substrate is digested with tryptase to form p-nitroaniline which can be measured at 405 nm. Usually, an incubation period of 5 minutes and an incubation temperature of 37° C. are chosen. The enzyme activity used is 0.91 U/ml. The measurements are carried out in an Autoanalyser (CobasBio) made by Hofmann LaRoche. The potential inhibitory substances are used in concentrations of 10 μM in the screening, the inhibition of the tryptase being given in percent. The IC50 is determined at over 70% inhibition (concentration at which 50% of the enzyme activity is inhibited). After 5 minutes' pre-incubation of the potential inhibitory substances, the substrate is added to start the reaction, the formation of p-nitroaniline being taken as a measurement of the enzyme activity after 5 minutes, after testing the linearity.
# The data obtained after the above test has been carried out (IC50 values) can be found in Table 3.
# T1 sequence (Q15661 31-275): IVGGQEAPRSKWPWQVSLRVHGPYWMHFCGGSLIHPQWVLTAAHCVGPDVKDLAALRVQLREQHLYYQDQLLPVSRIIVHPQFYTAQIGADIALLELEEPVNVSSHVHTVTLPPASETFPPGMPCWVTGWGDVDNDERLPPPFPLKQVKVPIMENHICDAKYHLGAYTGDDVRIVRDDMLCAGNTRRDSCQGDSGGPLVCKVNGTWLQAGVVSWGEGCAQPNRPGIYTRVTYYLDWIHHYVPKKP
row,Compound,IC50
1,"CCN(CC)CCN(c1ccc2c(c1)nc(CCc1ccc(C(=N)N)cc1)n2CCOC)S(=O)(=O)c1ccccc1 [Example 17, 1-(2-methoxyethyl)-2-[2-(4-amidinophenyl)-ethyl]-5-[N-(2-diethylaminoethyl)-benezene-sulphonylamino]-benzimidazole]",62 nM
2,"CCN(CC)CCN(c1ccc2c(c1)nc(CCc1ccc(CN)cc1)n2C)S(=O)(=O)c1ccccc1 [Example 5, N-{2-[2-(4-aminomethyl-phenyl)-ethyl]-1-methyl-benzimidazol-5-yl}-N-diethylaminoethyl-(benzenesulphonamide)-dihydrochloride]",100 nM
3,"Cn1c(CCc2ccc(C(=N)N)cc2)nc2cc(N(CCN3CCCC3)S(=O)(=O)c3ccccc3)ccc21 [Example 34, 1-methyl-2-[2-(4-amidino-phenyl)-ethyl]-5-[N-(2-pyrrolidin-1-ylethyl)-benzene-sulphonylamino]-benzimidazole]",43 nM
4,"Cn1c(CCc2ccc(C(=N)N)cc2)nc2cc(N(CCN3CCCCC3)S(=O)(=O)c3ccccc3)ccc21 [Example 33, 1-methyl-2-[2-(4-amidino-phenyl)-ethyl]-5-[N-(2-piperidin-1-ylethyl)-benzene-sulphonylamino]-benzimidazole]",44 nM

# Now from value to molecule:
row,IC50,Compound
1,6.6 nM,"CCN(CC)CCN(c1ccc2c(c1)nc(CCc1ccc(C(=N)N)cc1)n2C)S(=O)(=O)c1ccc2ccccc2c1 [Example 35, 1-methyl-2-[2-(4-amidino-phenyl)-ethyl]-5-[N-(2-diethylaminoethyl)-naphth-2-yl-sulphonylamino]-benzimidazole]"
2,215 nM,"Cn1c(CCc2ccc(C(=N)N)cc2)nc2cc(N(CC(=O)N3CCN(Cc4ccccc4)CC3)S(=O)(=O)c3ccc4ccccc4c3)ccc21 [Example 50, 1-Methyl-2-[2-(4-amidino-phenyl)-ethyl]-5-[N-(4′-benzyl-piperazin-1-yl-carbonylmethyl)-naphth-2-ylsulphonylamino]-benzimidazole]"
3,186 nM,"Cn1c(CCc2ccc(C(=N)N)cc2)nc2cc(N(CC(=O)N3CCN(c4ccncc4)CC3)S(=O)(=O)c3ccc4ccccc4c3)ccc21 [Example 49, 1-Methyl-2-[2-(4-amidino-phenyl)-ethyl]-5-[N-(4′-pyrid-4″- yl-piperazin-1-yl-carbonyl-methyl)-naphth-2-ylsulphonyl-amino]-benzimidazole]"
4,22 nM,"Cn1c(CCc2ccc(C(=N)N)cc2)nc2cc(N(Cc3ccccn3)S(=O)(=O)c3ccc4ccccc4c3)ccc21 [Example 44, 1-Methyl-2-[2-(4-amidino-phenyl)-ethyl]-5-[N-(pyrid-2-yl-methyl)-naphth-2-ylsulphonyl-amino]-benzimidazole;]"

# Test system: not given
# Assay: not given
# Details: not given
row,melting point,Compound
1,183 to 186 °C,"Cn1c(CCc2ccc(/C(N)=N/O)cc2)nc2cc(N(CCN3CCOCC3)S(=O)(=O)c3ccccc3)ccc21 [Example 56, N-{2-[2-(4-(amino-hydroximinomethyl)-phenyl)-ethyl]-1-methyl-benzimidazol-5-yl}-N-[2-(morpholin-4-yl)-ethyl]-(benzenesulphonamide)]"
